The values that follow are results of earlier work, collected in patent US20130259998A1, “FOODSTUFF PRESERVING COMPOSITION AND USE THEREOF” (NIACET B.V., priority 2012, published 2013).

The structures appear in SMILES notation.

The conditions of this data set: ingredient as such.
Take `CC(=O)[O-].[Na+]` [sodium acetate]: the pH as such is reported as 8.9. For `CC(O)C(=O)[O-].[Na+]` (stereo not drawn) [sodium lactate], the pH as such is 6.3. As to `CC(=O)O.CC(=O)O.NC(=N\CCCCCC/N=C(N)/N=C(\N)Nc1ccc(Cl)cc1)/N=C(\N)Nc1ccc(Cl)cc1` [diacetate], the pH as such is 4.5-5.0.
